Assay results published in patent publication US20220088044A1, “SUBSTANCES FOR TREATMENT OF CORONAVIRUS INFECTION” (ScandiBio Therapeutics AB, priority 2020, published 2022).
Like-named read-outs stand apart in the source and are kept apart here.

Assays:
[1] = system: LPS-induced acute lung injury; conditions: in vivo; cited from earlier work
COPD exacerbations = conditions: in vivo; cited from earlier work
[2] = system: epithelial cells exposed to the H5N1 influenza A virus; conditions: cited from earlier work
[3] = system: patients with community-acquired pneumonia; conditions: compared to conventional therapy; cited from earlier work
[4] = system: acute respiratory distress syndrome (ARDS); conditions: human, in vivo; cited from earlier work
HIV patients = conditions: cited from earlier work
[5] = cited from earlier work
[6] = cited from earlier work; remark: listed apart in the source
[7] = after ingestion of supplemental nicotinamide; cited from earlier work
[8] = system: obese subjects with hepatic steatosis; assay: Short-term dietary supplementation with serine in obese subjects with hepatic steatosis; type: in vivo, human
Description: To test the model-based predictions, we assessed the effect of short-term dietary supplementation with serine on fatty liver and fasting levels of plasma markers of liver functions in six obese subjects (BMI 32.5±2.70 kg/m2) with hepatic steatosis. Each patient received one oral dose of ˜20 g of L-serine (200 mg/kg) per day for 14 days. The supplementation was well-tolerated by all subjects. […] We examined the concept by testing if supplementation of GSH and NAD+ precursors for two weeks would decrease high fat diet induced liver fat accumulation in mice. Therefore, we gave serine 300 mg/kg/day and nicotinamide riboside (NR) 400 mg/kg/day la gavage as well as 1 g/l of NAC (N-acetyl-L-cysteine) in the drinking water for 14 days to high fat diet-fed mice.

[9] = system: Pasteurella multocida infection; conditions: mouse, in vivo; cited from earlier work
aging mice = conditions: mouse, in vivo; cited from earlier work
traumatic brain injury = conditions: mouse, in vivo; cited from earlier work
[10] = system: adults with hereditary sensory and autonomic neuropathy type 1 (HSAN1); conditions: 400 mg/kg/day, long-term (one to two years); cited from earlier work
[11] = cited from earlier work; remark: listed apart in the source
mice = conditions: cited from earlier work
blood NAD+ [12] = conditions: cited from earlier work
[13] = cited from earlier work; remark: listed apart in the source
blood NAD+ [14] = conditions: cited from earlier work; remark: listed apart in the source
[15] = cited from earlier work; remark: listed apart in the source
premature new-borns = conditions: 20 mg/kg/day; cited from earlier work
[16] = cited from earlier work; remark: listed apart in the source
[17] = cited from earlier work; remark: listed apart in the source
[18] = system: lamb model with increased pulmonary blood flow; conditions: chronic treatment; cited from earlier work
[19] = system: acute myocardial infarction; conditions: five controlled trials, n=3108; cited from earlier work
[20] = system: patients with chronic hepatitis C; conditions: 2 grams 2 times a day, compared to placebo; cited from earlier work

O=C(O)c1cccnc1 [niacin]
LPS-induced acute lung injury [1]: alleviate LPS-induced acute lung injury

CC(=O)N[C@@H](CS)C(=O)O [NAC, N-acetylcysteine]
number and effect of COPD exacerbations (COPD exacerbations): reduce the number and effect of COPD exacerbations | inflammatory response [2]: reduce | inflammatory response and oxidative stress [3]: improves inflammatory response and oxidative stress | duration of stay in intensive care [4]: has been shortened | short-term mortality or 30-day mortality [4]: did not contribute to reducing short-term mortality or 30-day mortality | glutathione levels in red blood cells (HIV patients; 900 mg or 1800 mg twice daily): increased significantly | red blood cell oxidized glutathione levels (HIV patients; 900 mg or 1800 mg twice daily): decreased significantly | glutathione: glutathione disulfide (GSH:GSSG) ratios (HIV patients; both doses compared to placebo): generally non-significant increased | half-life ([5]; adults): 5.6 to 6 h | time to peak plasma concentration ([5]; after application): 30 to 60 min | absorption ([5]; after oral administration): rapidly absorbed | share of amount passed to the blood determined in the lungs ([5]; after oral administration): 48% | distribution volume (Vd) ([5]; in vivo): 0.33 to 0.47 L/kg | excreted in urine in the form of sulfate and taurine ([5]; in vivo): 22-30% | rate of binding to plasma proteins ([5]; in vivo): about 50% | effect of food intake ([5]; oral): not affected | safety profile ([6]; HIV-infected patients, oral 6,000-8,000 mg daily for several months): good safety profile | safety in humans ([6]; daily dosage of 4-6 grams): shown to be safe | serious adverse events or signs of intoxication ([6]; even at very high doses): serious adverse events or signs of intoxication are not observed | incidence of most common adverse reactions (rash, urticaria/facial flushing, pruritus, nausea and vomiting) ([6]; in vivo): greater than 2% | anaphylactic reactions, share of people ([6]; within 30 min after IV loading dose): 3-6%

NC(=O)c1cccnc1 [nicotinamide]
flushing or glucose intolerance [7]: no cases of flushing or glucose intolerance have been reported

N[C@@H](CO)C(=O)O [L-serine]
ALT, AST, and ALP levels ([8]; after 14 days supplementation): significantly decreased | liver fat ([8]; after ~20 g L-serine (200 mg/kg) oral per day for 14 days, decreased significantly from 26.8±6.0%): 20.4±7.0% | tolerability ([8]; ~20 g L-serine per day for 14 days): well-tolerated | macrophage- and neutrophil-mediated inflammatory responses [9]: decrease the macrophage- and neutrophil-mediated inflammatory responses | body weight, oxidative stress and inflammation (aging mice): reduce body weight by decreasing orexigenic peptide expression and reduces oxidative stress and inflammation | neuroprotection (traumatic brain injury): lead to neuroprotection | adverse effects (vital signs, physical examination, clinical laboratory) [10]: did not reveal adverse effects | safety in humans ([11]; doses up to 400 mg/kg/day (around 25-30 g/day)): shown to be safe | safety in pregnancy ([11]; three daily doses of 5 g (190 mg/kg), pre- and postnatal treatment of 3-phosphoglycerate-dehydrogenase deficiency): safe even in pregnancy

CC(=O)N[C@@H](CSN=O)C(=O)O [SNOAC, S-nitroso-N-acetylcysteine]
expression of several important genes (mice; in vitro and in vivo): induced a hypoxia-like response | blood pressure in lungs and right ventricle (pulmonary artery hypertension) (mice; metabolite formed in mice treated with acetylcysteine): increased blood pressure in the lungs and right ventricle of the heart

NC(=O)c1ccc[n+]([C@@H]2O[C@H](CO)[C@@H](O)[C@H]2O)c1 [NR, Nicotinamide riboside]
blood NAD+ metabolome (blood NAD+ [12]; single doses of 100, 300 and 1,000 mg): dose-dependent increases | rise of human blood NAD+ (blood NAD+ [12]; single oral dose, pilot study): ≤ 2.7 fold | lowest observed adverse effect level ([13]; 90-day study): 1000 mg/kg/day | no observed adverse effect level ([13]; 90-day study): 300 mg/kg/day | mortality ([13]; oral dose of 5000 mg/kg): no mortality | tolerability (blood NAD+ [14]; oral, 250 mg up-titrated to 1000 mg twice daily, 9 days): well tolerated with no adverse events | increase of blood NAD+, baseline to steady state (blood NAD+ [14]; p=0.001): 100% | whole-blood NR, baseline to mean concentration at steady state (blood NAD+ [14]; p=0.03): Significant increases

C[N+](C)(C)CC(O)CC(=O)[O-] (stereo not shown) [carnitine]
side effects ([15]; doses of approximately 3 g/day): nausea, vomiting, abdominal cramps, diarrhoea, and a “fishy” body odor | total carnitine concentrations in plasma and red blood cells (premature new-borns): increases total carnitine concentrations in plasma and red blood cells

C[N+](C)(C)C[C@H](O)CC(=O)[O-] [L-carnitine]
solubility in acetone [16]: insoluble | solubility in water, hot alcohol [16]: readily soluble | absolute bioavailability ([17]; in vivo): 15-16% | faecal excretion of total carnitine ([17]; in vivo): less than 1 % of the administered dose | mean apparent terminal elimination half-life ([17]; in vivo): 17.4 h | mean distribution half-life ([17]; in vivo): ~0.6 h | removal from plasma by dialysis ([17]; in vivo): easily removed from plasma by dialysis | total body clearance (Dose/AUC including endogenous baseline concentrations), mean ([17]; in vivo): 4.00 L/h | binding to plasma protein or albumin ([17]; tested at any concentration): not bound | tolerability ([15]; in vivo): usually well tolerated | toxicity from over dosage ([15]; in vivo): no reports of toxicity | lung carnitine homeostasis, oxidative stress, mitochondrial and endothelial function [18]: alleviates changes in lung carnitine homeostasis, reduces associated oxidative stress, and improves pulmonary mitochondrial function, NO signalling and eventually endothelial function | heart failure, unstable angina, or myocardial reinfarction: daily 2 g versus 6 g [19]: no significant differences

CC(=O)O[C@H](CC(=O)[O-])C[N+](C)(C)C [Acetyl-L-Carnitine]
daily activity and fatigue [20]: increase daily activity in patients, reduce fatigue
